Tested on: 233499-124-R-J3-PDC complex spheroid viability
Test: Anticancer human tumor 233499-124-R-J3-PDC patient-derived colon adenocarcinoma cell line growth inhibition [CLK]
Details: for IC50: curve of first compound; for viability, T/C: stronger effect = lower value
Excerpt: A high-throughput screen of multi-cell type tumor spheroids was designed to identify active combinations of […] and targeted small molecules. Complex spheroids include a stromal component modeled by human endothelial cells (HUVEC) and fibroblasts modeled by human mesenchymal stem cells (MSCs). The concentration ranges selected for each drug and investigational agent were based upon clinically achievable concentrations if the clinical Cmax of the agent was known.
Compounds. The drugs and investigational agents: cirtuvivint (SM08502; NSC835563), CC-671 (NSC850746), vemurafenib (NSC761431), tapotoclax (NSC804041), sotorasib (NSC818433), adagrasib (NSC831453), MRTX-1133 (NSC836407), BAY2416964 (NSC825713), copanlisib (NSC816437), inavolisib (NSC800729), abemaciclib (NSC768073), osimertinib (NSC779217), entinostat (NSC756642), eltanexor (KPT-8602, NSC794443), venetoclax (NSC766270), ceralasertib (NSC777638), bortezomib (NSC756655), olaparib (NSC753686), talazoparib (NSC767125), alisertib (NSC759677), peposertib (NSC802822), gemcitabine (NSC613327), 5-fluorouracil (NSC19893), SN-38 (NSC673596), oxaliplatin (NSC266046), paclitaxel (NSC125973), and doxorubicin (NSC123127), were obtained from the National Cancer Institute (NCI) Developmental Therapeutics Program Chemical Repository. The FDA-approved anticancer drug set is available from the Developmental Therapeutics Program at https://dtp.cancer.gov/organization/dscb/obtaining/available plates.htm. […] The stock solutions were prepared in dimethyl sulfoxide (DMSO, Sigma-Aldrich, St. Louis, MO, cat. D2650), except for the platinum complexes which were prepared in saline (Quality Biological, Gaithersburg, MD, cat. 114-055-101), at 800-fold the tested concentration and stored at -70 degrees C prior to their use. All drugs and investigational agents were tested over a range starting from a high concentration at or near the clinical Cmax and decreasing in half-log increments. If the clinical Cmax for an agent had not been determined, the highest concentration tested was 10 microM.
Cell Culture. All cells were maintained in an incubator at 37 degrees C and 5% CO2 with 95% humidity. The PDC lines were cultured according to standard operating procedures established by the NCI PDMR. Briefly, all PDCs were thawed and cultured in Matrigel-coated flasks prepared with a working solution of 1X Ham's F-12 nutrient mix, without supplementation (Invitrogen, Waltham, MA, cat. 11765054), 100 U/mL penicillin-streptomycin (Invitrogen, cat. 15140122), and 2.5% Matrigel (Corning Inc., Corning, NY, cat. 354248) for the first three passages. The 947758-054-R-J2-PDC line was cultured in 6B/Colon 1A media, which includes advanced DMEM/F-12 (Thermo Fisher Scientific, cat. 12634028), 10 mM HEPES (Thermo Fisher Scientific, cat. 15630080), 1X GlutaMAX supplement (Thermo Fisher Scientific, cat. 35050061), 0.1 mg/mL primocin (InvivoGen, cat. ant-pm-2), 10% defined fetal bovine serum, heat inactivated (HyClone Laboratories Inc., cat. SH30070.03HI), 1.25 mM N-Acetyl-L-cysteine (Sigma-Aldrich, cat. A9165), 10 mM nicotinamide (Sigma-Aldrich, cat. N0636), 1X B-27 supplement (Thermo Fisher Scientific, cat. 17504044), 1X N-2 supplement (Thermo Fisher Scientific, cat. 17502048), and 10 microM Y-27632 dihydrochloride (Tocris Bioscience, cat. 1254). The 876862-298-R-J1-PDC was cultured in 6E media, which includes all 6B/Colon 1A media components plus 50% L-WRN conditioned media (ATCC, cat. CRL-3276), 50 ng/mL recombinant human EGF recombinant protein (hEGF; Thermo Fisher Scientific, cat. PHG0311), 10 ng/mL recombinant human fibroblast growth factor 10 (hGFG-10; PeproTech, cat. 100-26), 1 ng/mL recombinant human fibroblast growth factor 2 (hFGF-2; PeproTech, cat. 100-18B), and 1 µM prostaglandin E2 (PGE2; Tocris, cat. 2296). The 227483-062-R1-J1-PDC line was cultured in Panc media, containing all 6E components except hFGF-2, with the addition of 500 nM SB-431542 (Selleckchem, cat. S1067) and 10 nM gastrin (Tocris, cat. 3006). […]

[1] = second compound 0.0316 µM, first compound 0.0316 µM
[2] = second compound 0.0316 µM, first compound 0.1 µM
[3] = second compound 0.0316 µM, first compound 0.316 µM
[4] = second compound 0.0316 µM, first compound 1 µM
[5] = second compound 0.0316 µM, first compound 3.16 µM
[6] = second compound 0.0316 µM, first compound 10 µM
[7] = second compound 0.1 µM, first compound 0.0316 µM
[8] = second compound 0.1 µM, first compound 0.1 µM
[9] = second compound 0.1 µM, first compound 0.316 µM
[10] = second compound 0.1 µM, first compound 1 µM
[11] = second compound 0.1 µM, first compound 3.16 µM
[12] = second compound 0.1 µM, first compound 10 µM
[13] = second compound 0.316 µM, first compound 0.0316 µM
[14] = second compound 0.316 µM, first compound 0.1 µM
[15] = second compound 0.316 µM, first compound 0.316 µM
[16] = second compound 0.316 µM, first compound 1 µM
[17] = second compound 0.316 µM, first compound 3.16 µM
[18] = second compound 0.316 µM, first compound 10 µM
[19] = second compound 1 µM, first compound 0.0316 µM
[20] = second compound 1 µM, first compound 0.1 µM
[21] = second compound 1 µM, first compound 0.316 µM
[22] = second compound 1 µM, first compound 1 µM
[23] = second compound 1 µM, first compound 3.16 µM
[24] = second compound 1 µM, first compound 10 µM
[25] = second compound 3.16 µM, first compound 0.0316 µM
[26] = second compound 3.16 µM, first compound 0.1 µM
[27] = second compound 3.16 µM, first compound 0.316 µM
[28] = second compound 3.16 µM, first compound 1 µM
[29] = second compound 3.16 µM, first compound 3.16 µM
[30] = second compound 3.16 µM, first compound 10 µM
[31] = second compound 10 µM, first compound 0.0316 µM
[32] = second compound 10 µM, first compound 0.1 µM
[33] = second compound 10 µM, first compound 0.316 µM
[34] = second compound 10 µM, first compound 1 µM
[35] = second compound 10 µM, first compound 3.16 µM
[36] = second compound 10 µM, first compound 10 µM
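Further: spheroids exposed to the drug combinations for seven days.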
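Wherever viability, T/C is given: percent viability relative to DMSO vehicle control wells taken as 100%.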

COc1ccc([C@@H](O)c2cc(-c3ncnc4cc(N5CCOCC5)ccc34)c(F)cc2Cl)nn1 + CNC(=O)c1ccc(Nc2nc(OC3CCCC3)c3c(-c4ccc5nc(C)oc5c4)c[nH]c3n2)c(OC)c1
IC50 (second compound 0.0316 µM): > 10000 nM
IC50 (second compound 0.1 µM): > 10000 nM
IC50 (second compound 0.316 µM): > 10000 nM
IC50 (second compound 1 µM): 1510 nM
IC50 (second compound 3.16 µM): 2680 nM
IC50 (second compound 10 µM): 118 nM
viability, T/C [1]: 94.7%
viability, T/C [2]: 89.6%
viability, T/C [3]: 86.6%
viability, T/C [4]: 97%
viability, T/C [5]: 81.1%
viability, T/C [6]: 52.8%
viability, T/C [7]: 54.9%
viability, T/C [8]: 65.2%
viability, T/C [9]: 67.8%
viability, T/C [10]: 55.8%
viability, T/C [11]: 65.5%
viability, T/C [12]: 63.8%
viability, T/C [13]: 68.4%
viability, T/C [14]: 52.1%
viability, T/C [15]: 57%
viability, T/C [16]: 50.2%
viability, T/C [17]: 69.4%
viability, T/C [18]: 41.3%
viability, T/C [19]: 84.6%
viability, T/C [20]: 64%
viability, T/C [21]: 64.6%
viability, T/C [22]: 51.1%
viability, T/C [23]: 48.4%
viability, T/C [24]: 37.6%
viability, T/C [25]: 72.8%
viability, T/C [26]: 68.9%
viability, T/C [27]: 37.1%
viability, T/C [28]: 55.2%
viability, T/C [29]: 65.3%
viability, T/C [30]: 39%
viability, T/C [31]: 55.3%
viability, T/C [32]: 49.2%
viability, T/C [33]: 43.7%
viability, T/C [34]: 46.4%
viability, T/C [35]: 47.7%
viability, T/C [36]: 38.9%

C#Cc1c(F)ccc2cc(O)cc(-c3ncc4c(N5CC6CCC(C5)N6)nc(OCC56CCCN5CC(F)C6)nc4c3F)c12 (stereo unspecified) + CN1CCN(c2cc(C(=O)Nc3cc4cc(-c5cnn(C)c5)ccc4cn3)ccn2)CC1
IC50 (second compound 0.0316 µM): > 10000 nM
IC50 (second compound 0.1 µM): > 10000 nM
IC50 (second compound 0.316 µM): > 10000 nM
IC50 (second compound 1 µM): < 31.6 nM
IC50 (second compound 3.16 µM): < 31.6 nM
IC50 (second compound 10 µM): < 31.6 nM
viability, T/C [1]: 80.6%
viability, T/C [2]: 96.9%
viability, T/C [3]: 92.9%
viability, T/C [4]: 91.9%
viability, T/C [5]: 98.1%
viability, T/C [6]: 76.8%
viability, T/C [7]: 87.4%
viability, T/C [8]: 99.8%
viability, T/C [9]: 109%
viability, T/C [10]: 94.1%
viability, T/C [11]: 85.7%
viability, T/C [12]: 71.4%
viability, T/C [13]: 90.7%
viability, T/C [14]: 92%
viability, T/C [15]: 102%
viability, T/C [16]: 98.5%
viability, T/C [17]: 81.9%
viability, T/C [18]: 66.4%
viability, T/C [19]: 3.8%
viability, T/C [20]: 4.61%
viability, T/C [21]: 1.85%
viability, T/C [22]: 9.57%
viability, T/C [23]: 2.33%
viability, T/C [24]: 1.27%
viability, T/C [25]: 0.59%
viability, T/C [26]: 0.56%
viability, T/C [27]: 0.97%
viability, T/C [28]: 0.63%
viability, T/C [29]: 1.43%
viability, T/C [30]: 0.5%
viability, T/C [31]: 0.45%
viability, T/C [32]: 0.45%
viability, T/C [33]: 0.43%
viability, T/C [34]: 0.39%
viability, T/C [35]: 0.39%
viability, T/C [36]: 0.8%

Nc1ccccc1NC(=O)c1ccc(CNC(=O)OCc2cccnc2)cc1 + CN1CCN(c2cc(C(=O)Nc3cc4cc(-c5cnn(C)c5)ccc4cn3)ccn2)CC1
IC50 (second compound 0.0316 µM): 1690 nM
IC50 (second compound 0.1 µM): 1110 nM
IC50 (second compound 0.316 µM): < 31.6 nM
IC50 (second compound 1 µM): < 31.6 nM
IC50 (second compound 3.16 µM): < 31.6 nM
IC50 (second compound 10 µM): < 31.6 nM
viability, T/C [1]: 96.3%
viability, T/C [2]: 89.9%
viability, T/C [3]: 93.6%
viability, T/C [4]: 80.5%
viability, T/C [5]: 13.5%
viability, T/C [6]: 0.6%
viability, T/C [7]: 89.3%
viability, T/C [8]: 100%
viability, T/C [9]: 80.2%
viability, T/C [10]: 56.6%
viability, T/C [11]: 2.92%
viability, T/C [12]: 0.44%
viability, T/C [13]: 17.7%
viability, T/C [14]: 47.3%
viability, T/C [15]: 2.45%
viability, T/C [16]: 0.63%
viability, T/C [17]: 0.47%
viability, T/C [18]: 0.63%
viability, T/C [19]: 0.46%
viability, T/C [20]: 0.44%
viability, T/C [21]: 0.62%
viability, T/C [22]: 0.56%
viability, T/C [23]: 0.57%
viability, T/C [24]: 1.23%
viability, T/C [25]: 0.65%
viability, T/C [26]: 0.68%
viability, T/C [27]: 0.7%
viability, T/C [28]: 0.66%
viability, T/C [29]: 0.69%
viability, T/C [30]: 0.59%
viability, T/C [31]: 0.18%
viability, T/C [32]: 0.24%
viability, T/C [33]: 0.28%
viability, T/C [34]: 0.28%
viability, T/C [35]: 0.26%
viability, T/C [36]: 0.35%

Source: PubChem BioAssay AID2060613 (Molecular Pharmacology Branch, DTP, NCI, 2025)
